Five compounds from patent publication US8633168B2, “Inhibitors of S-adenosyl-L-methionine decarboxylase” (Genzyme Corporation, priority 2007, dated 2014) can be followed below.

SMILES strings stand for the structures. Read-outs that look alike come from different tables or passages of the source.

Data set [1] in a line: Solubility in phosphate buffer. It is filed as physicochemical. The following applies: for Sol.: Table 2, @ 7.4; for solubility at 16 hours: phosphate buffer. The protocol:
A stock solution for each test compound was prepared at 25 mM in DMSO. These were diluted into phosphate buffer and equilibrated for 16 hours at room temperature, and then filtered to remove precipitated compound. The UV absorbance of this equilibrated sample was compared to a single point reference standard.

For another data set, the target named is T1, CYP1A2 (Homo sapiens, UniProt P05177).
T1 sequence (P05177 1-516): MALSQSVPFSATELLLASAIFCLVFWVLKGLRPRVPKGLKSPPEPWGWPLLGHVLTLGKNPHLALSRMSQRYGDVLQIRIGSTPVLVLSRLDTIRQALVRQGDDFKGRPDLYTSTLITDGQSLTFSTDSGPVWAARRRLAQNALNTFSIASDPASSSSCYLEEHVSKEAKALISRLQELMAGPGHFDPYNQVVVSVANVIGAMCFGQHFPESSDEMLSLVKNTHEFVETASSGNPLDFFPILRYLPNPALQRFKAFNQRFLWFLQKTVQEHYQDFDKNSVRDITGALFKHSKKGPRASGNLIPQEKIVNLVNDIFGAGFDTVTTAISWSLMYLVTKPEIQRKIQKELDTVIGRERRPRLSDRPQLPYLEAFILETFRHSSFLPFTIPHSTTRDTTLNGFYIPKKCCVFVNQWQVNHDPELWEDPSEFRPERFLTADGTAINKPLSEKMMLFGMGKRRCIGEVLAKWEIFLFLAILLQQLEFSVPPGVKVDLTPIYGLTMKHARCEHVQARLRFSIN
The data set is described as follows: Cytochrome P450 inhibition, CYP1A2. An excerpt:
This cytochrome P450 high throughput IC50 inhibition assay is utilized for screening potential inhibitors of the 5 major human CYP isozyme catalytic activities (CYP3A4, 2D6, 2C9, 2C19, and 1A2).

The next data set relates to T. b. brucei - STIB795. The data set is described as follows: In vivo efficacy, acute T. b. brucei STIB795 infection model in mice. More on the design: species or system mouse (NMRI). As to conditions: for average (survival days) / cured/infected: 4 × 50 mg/kg i.p., NMRI mice; for average (survival days): control 6; for activity in the model (lengthening the survival days) / mice cured: STIB795 model, footnote of Table 4; for protection from lethal effects of infection: controls died on average by Day 6. The protocol: Compounds are tested for efficacy in the acute model for T. b. brucei infection (Bitonti A J, Byers T L, Bush T L, Casara P J, Bacchi C J, Clarkson A B, Jr., McCann P P, Sjoerdsma A, 1990. Cure of Trypanosoma brucei brucei and Trypanosoma brucei rhodesiense infections in mice with an irreversible inhibitor of S-adenosylmethionine decarboxylase. Antimicrob Agents Chemother 34: 1485-1490). Briefly, mice are infected with 1×10^4 strain STIB 795 trypanosomes on Day 0, then treated once/day (50 mg/kg i.p) with test compound for 4 days starting on Day 3. Animals are assessed by microscopic examination of blood smears twice/week through Day 60. Untreated animals generally die by Days 7-9.

The mark [2] stands for this setting: aqueous buffer, kinetic from dmso stock, Example 12 chart, pH 7.4.
Setting [3] is: read-out: CYP IC50 1A2, Example 12 chart.

By solubility is commonly meant how much of the substance goes into solution per volume. As a reminder, the IC50 is the concentration that gives 50% inhibition. As a reminder, the logD is lipophilicity at a set pH, counting ionised and neutral species. A lower logD goes with lower lipophilicity. For the compound `CN(C/C=C\CN)CC1OC(n2cnc3c(N)ncnc32)C(O)C1O` (stereo not drawn) [MDL-73811, reference compound], the Sol. in data set [1] is >47 (@ 7.4) ug/ml. The solubility in data set [1] (setting [2]) was above 47 µg/mL. The IC50 at CYP1A2 is above 5 µM. At CYP1A2 (setting [3]), the IC50 is above 5 µM. In the data set on T. b. brucei - STIB795, the “survival of treated animals” value is “all survived through Day 30”, the “average (survival days)” value is reported as above 30 days, the “activity in the model (lengthening the survival days)” value was “active in the model in terms of lengthening the survival days” and the mice cured entry is recorded as “¼”. The “protection from lethal effects of infection” value in the data set on T. b. brucei - STIB795 is “protected mice from lethal effects of infection”. The same compound gave a cured/infected with T. b. brucei - STIB795 (26 Days) of 26 Days 2/4. Also, the cured/infected in the data set on T. b. brucei - STIB795 (>30 Days) was 1/4. Also, in “physchem”, the logD is -1.8.

For `CN(C/C=C\CN)C[C@H]1O[C@@H](n2cnc3c(N)nc(Cl)nc32)[C@H](O)[C@@H]1O` [Compound 3], in data set [1], the Sol. was >51 (@ 7.4) ug/ml. The solubility at 16 hours in data set [1] (setting [2]) is above 51 µg/mL. For the same compound, the IC50 at CYP1A2 and on CYP1A2 (setting [3]) was above 5 µM each time.

For `CN(C/C=C\CN)C[C@H]1O[C@@H](n2cnc3c(N)ncnc32)[C@@H](F)[C@@H]1O` [Compound 2], the Sol. in data set [1] is recorded as >47 (@ 7.4) ug/ml. For the same compound, the solubility at 16 hours in data set [1] (setting [2]) was above 47 µg/mL. The IC50 at CYP1A2 and at CYP1A2 (setting [3]) was above 5 µM throughout.

In the case of `Cc1nc2c(N)ncnc2n1[C@@H]1O[C@H](CN(C)C/C=C\CN)[C@@H](O)[C@H]1O` (stereo in doubt) [Compound 4], the Sol. in data set [1] is >49 (@ 7.4) ug/ml. This compound yielded a solubility at 16 hours in data set [1] (setting [2]) above 49 µg/mL. For the same compound, on CYP1A2, the 50% inhibitory concentration (IC50) is above 5 µM. In addition, the 50% inhibitory concentration (IC50) at CYP1A2 (setting [3]) was above 5 µM. Besides, in the data set with T. b. brucei - STIB795, the “survival of treated animals” value is “all survived through Day 30”, the “average (survival days)” value is listed as above 30 days, the “activity in the model (lengthening the survival days)” value is “active in the model in terms of lengthening the survival days” and the “protection from lethal effects of infection” value is reported as “protected mice from lethal effects of infection”. This compound also showed a cured/infected in the data set with T. b. brucei - STIB795 (20 Days) of 20 Days 0/4. The cured/infected in the data set on T. b. brucei - STIB795 (>30 Days) is 1/4. In addition, the “parasites on Day 20” value in the data set with T. b. brucei - STIB795 (Day 20) is “appeared free of parasites”. Also, the “parasites on Day 30” value in the data set on T. b. brucei - STIB795 (Day 30) is reported as “parasites were again evident”. For the same compound, the mice cured result with T. b. brucei - STIB795 (listed as Compound No. 4) is on record as “¼”.

As to `CN(C/C=C\CN)C[C@H]1O[C@@H](n2cnc3c(N)ncnc32)[C@H](F)[C@@H]1O` (stereo in doubt) [Compound 1], the Sol. in data set [1] was >47 (@ 7.4) ug/ml. Further, the solubility at 16 hours in data set [1] (setting [2]) was above 47 µg/mL. Besides, the IC50 at CYP1A2 (human, probe fluorometric substrates (not named)) was above 5 µM.
